Test results published in US9169254B2, “Spiroimidazolone derivative” (Chugai Seiyaku Kabushiki Kaisha, priority 2009, dated 2015).

Target: T1, human PTH1 receptor (Homo sapiens, UniProt Q03431)
T1 sequence (Q03431 27-593): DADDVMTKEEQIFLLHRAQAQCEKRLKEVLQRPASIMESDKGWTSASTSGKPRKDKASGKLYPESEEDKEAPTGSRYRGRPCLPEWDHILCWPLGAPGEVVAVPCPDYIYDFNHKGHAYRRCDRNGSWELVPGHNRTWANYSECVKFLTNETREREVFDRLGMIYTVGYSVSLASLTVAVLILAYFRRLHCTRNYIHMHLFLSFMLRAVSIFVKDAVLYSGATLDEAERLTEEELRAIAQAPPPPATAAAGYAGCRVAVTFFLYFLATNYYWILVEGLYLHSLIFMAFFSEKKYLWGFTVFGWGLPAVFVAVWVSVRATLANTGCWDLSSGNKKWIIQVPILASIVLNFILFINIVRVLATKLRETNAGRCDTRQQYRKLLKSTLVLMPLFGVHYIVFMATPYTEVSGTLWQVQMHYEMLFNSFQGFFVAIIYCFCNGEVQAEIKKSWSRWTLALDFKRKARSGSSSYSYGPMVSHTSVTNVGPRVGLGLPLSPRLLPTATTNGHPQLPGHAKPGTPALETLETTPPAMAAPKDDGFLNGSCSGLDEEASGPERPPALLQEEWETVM
Assay: In vitro cAMP signal activity in HKRK-B7 cells (LLC-PK1 cells overexpressing the human PTH1 receptor)
Type: cell-based
Conditions: HKRK-B7 cells; compound at 1×10^−3 M; cAMP produced as percentage of that produced by hPTH(1-34) at 100 nM

Row | cAMP production activity (%) | Structure (SMILES)
1 | 45 | CC1CCC(C2=NC3(CCN(S(=O)(=O)CCc4cccc5[nH]ccc45)CC3)C(=O)N2)CC1 (centres unmarked) [Compound 306, 8-[2-(1H-indol-4-yl)-ethanesulfonyl]-2-(4-methyl-cyclohexyl)-1,3,8-triaza-spiro[4.5]dec-1-en-4-one]
2 | 58 | O=C1NC(c2cccc(OC(F)(F)F)c2)=NC12CCN(S(=O)(=O)CCc1cccc3c1OC(F)(F)O3)CC2 [Compound 307, 8-[2-(2,2-difluoro-benzo[1,3]dioxol-4-yl)-ethanesulfonyl]-2-(3-trifluoromethoxy-phenyl)-1,3,8-triaza-spiro[4.5]dec-1-en-4-one]
3 | 72 | Cn1ccc2cccc(CCS(=O)(=O)N3CCC4(CC3)N=C(c3cccc(OC(F)(F)F)c3)NC4=O)c21 [Compound 308, 8-[2-(1-methyl-1H-indol-7-yl)-ethanesulfonyl]-2-(3-trifluoromethoxy-phenyl)-1,3,8-triaza-spiro[4.5]dec-1-en-4-one]
4 | 72 | O=C1NC(C2CCCCC2)=NC12CCN(S(=O)(=O)CCc1cccc3c1ccn3C[C@H](O)CO)CC2 [Compound 309, 2-cyclohexyl-8-{2-[1-((S)-2,3-dihydroxy-propyl)-1H-indol-4-yl]-ethanesulfonyl}-1,3,8-triaza-spiro[4.5]dec-1-en-4-one]
5 | 76 | CN(C)C(=O)n1ccc2c(CCS(=O)(=O)N3CCC4(CC3)N=C(C3CCCCC3)NC4=O)cccc21 [Compound 310, 4-[2-(2-cyclohexyl-4-oxo-1,3,8-triaza-spiro[4.5]dec-1-ene-8-sulfonyl)-ethyl]-indole-1-carboxylic acid dimethylamide]
6 | 67 | CC1CCC(C2=NC3(CCN(S(=O)(=O)CCCc4cccc5[nH]ccc45)CC3)C(=O)N2)CC1 (centres unmarked) [Compound 311, 8-[3-(1H-indol-4-yl)-propane-1-sulfonyl]-2-(4-methyl-cyclohexyl)-1,3,8-triaza-spiro[4.5]dec-1-en-4-one]
7 | 49 | CS(=O)(=O)n1ccc2c(CCS(=O)(=O)N3CCC4(CC3)N=C(C3CCCCC3)NC4=O)cccc21 [Compound 312, 2-cyclohexyl-8-[2-(1-methanesulfonyl-1H-indol-4-yl)-ethanesulfonyl]-1,3,8-triaza-spiro[4.5]dec-1-en-4-one]
8 | 63 | CN(C)CCn1ccc2c(CCS(=O)(=O)N3CCC4(CC3)N=C(C3CCCCC3)NC4=O)cccc21 [Compound 313, 2-cyclohexyl-8-{2-[1-(2-dimethylamino-ethyl)-1H-indol-4-yl]-ethanesulfonyl}-1,3,8-triaza-spiro[4.5]dec-1-en-4-one]
9 | 68 | Nc1ccc(CCS(=O)(=O)N2CCC3(CC2)N=C(C2CCCCC2)NC3=O)c(C(F)(F)F)c1 [Compound 314, 8-[2-(4-amino-2-trifluoromethyl-phenyl)-ethanesulfonyl]-2-cyclohexyl-1,3,8-triaza-spiro[4.5]dec-1-en-4-one]
10 | 26 | O=C1NC(C2CCCCC2)=NC12CCN(S(=O)(=O)CCCc1cccc(C(F)(F)F)c1)CC2 [Compound 315, 2-cyclohexyl-8-[3-(3-trifluoromethyl-phenyl)-propane-1-sulfonyl]-1,3,8-triaza-spiro[4.5]dec-1-en-4-one]
11 | 20 | Cc1cccc(CCCS(=O)(=O)N2CCC3(CC2)N=C(C2CCCCC2)NC3=O)c1 [Compound 316, 2-cyclohexyl-8-(3-m-tolyl-propane-1-sulfonyl)-1,3,8-triaza-spiro[4.5]dec-1-en-4-one]
12 | 62 | O=C1NC(C2CCCCC2)=NC12CCN(S(=O)(=O)CCCc1cccc(O)c1)CC2 [Compound 317, 2-cyclohexyl-8-[3-(3-hydroxy-phenyl)-propane-1-sulfonyl]-1,3,8-triaza-spiro[4.5]dec-1-en-4-one]
13 | 52 | O=C1NC(C2CCCCC2)=NC12CCN(S(=O)(=O)CCCc1ccccc1O)CC2 [Compound 318, 2-cyclohexyl-8-[3-(2-hydroxy-phenyl)-propane-1-sulfonyl]-1,3,8-triaza-spiro[4.5]dec-1-en-4-one]
14 | 31 | O=C1NC(C2CCCCC2)=NC12CCN(S(=O)(=O)CCc1csc3ccccc13)CC2 [Compound 319, 8-(2-benzo[b]thiophen-3-yl-ethanesulfonyl)-2-cyclohexyl-1,3,8-triaza-spiro[4.5]dec-1-en-4-one]
15 | 33 | O=C1NC(C2CCCCC2)=NC12CCN(S(=O)(=O)CCc1cccc3cnccc13)CC2 [Compound 320, 2-cyclohexyl-8-(2-isoquinolin-5-yl-ethanesulfonyl)-1,3,8-triaza-spiro[4.5]dec-1-en-4-one]
16 | 55 | Cc1cc(NC[C@H](O)CO)ccc1CCS(=O)(=O)N1CCC2(CC1)N=C(C1CCCCC1)NC2=O [Compound 321, 2-Cyclohexyl-8-{2-[4-((S)-2,3-dihydroxy-propylamino)-2-methyl-phenyl]-ethanesulfonyl}-1,3,8-triaza-spiro[4.5]dec-1-en-4-one]
17 | 75 | O=C1NC(C2CCC(C(F)(F)F)CC2)=NC12CCN(S(=O)(=O)CCc1cccc3c1ccn3C[C@H](O)CO)CC2 (stereo partly drawn) [Compound 322, 8-{2-[1-((S)-2,3-dihydroxy-propyl)-1H-indol-4-yl]-ethanesulfonyl}-2-(4-trifluoromethyl-cyclohexyl)-1,3,8-triaza-spiro[4.5]dec-1-en-4-one]
18 | 53 | O=C1NC(C2CCCCC2)=NC12CCN(S(=O)(=O)CCc1ccccc1C(F)(F)F)CC2 [Compound 323, 2-Cyclohexyl-8-[2-(2-trifluoromethyl-phenyl)-ethanesulfonyl]-1,3,8-triaza-spiro[4.5]dec-1-en-4-one]
19 | 30 | CN(C)C(=O)c1ccc(CCCS(=O)(=O)N2CCC3(CC2)N=C(C2CCCCC2)NC3=O)cc1 [Compound 324, 4-[3-(2-cyclohexyl-4-oxo-1,3,8-triaza-spiro[4.5]dec-1-ene-8-sulfonyl)-propyl]-N,N-dimethyl-benzamide]
20 | 61 | Cc1cc(OC[C@H](O)CO)ccc1CCS(=O)(=O)N1CCC2(CC1)N=C(c1cccc(OC(F)(F)F)c1)NC2=O [Compound 325, 8-{2-[4-((R)-2,3-Dihydroxy-propoxy)-2-methyl-phenyl]-ethanesulfonyl}-2-(3-trifluoromethoxy-phenyl)-1,3,8-triaza-spiro[4.5]dec-1-en-4-one]
21 | 76 | CC(=O)N(CCO)c1ccc(C)c(CCS(=O)(=O)N2CCC3(CC2)N=C(c2cccc(OC(F)(F)F)c2)NC3=O)c1 [Compound 326, N-(2-Hydroxy-ethyl)-N-(4-methyl-3-{2-[4-oxo-2-(3-trifluoromethoxy-phenyl)-1,3,8-triaza-spiro[4.5]dec-1-ene-8-sulfonyl]-ethyl}-phenyl)-acetamide]
22 | 84 | CC(=O)N(CCO)c1cccc(CCS(=O)(=O)N2CCC3(CC2)N=C(c2cccc(OC(F)(F)F)c2)NC3=O)c1C [Compound 327, N-(2-Hydroxy-ethyl)-N-(2-methyl-3-{2-[4-oxo-2-(3-trifluoromethoxy-phenyl)-1,3,8-triaza-spiro[4.5]dec-1-ene-8-sulfonyl]-ethyl}-phenyl)-acetamide]
23 | 41 | Nc1cccc(CCCS(=O)(=O)N2CCC3(CC2)N=C(C2CCCCC2)NC3=O)c1 [Compound 328, 8-[3-(3-Amino-phenyl)-propane-1-sulfonyl]-2-cyclohexyl-1,3,8-triaza-spiro[4.5]dec-1-en-4-one]
